According to ChEMBL document CHEMBL1140615, “Predicting anti-HIV activity of PETT derivatives: CoMFA approach” (2007):
Several values for one entry are separate records, joined by “and”; a condition that tells them apart may be missing. Equal values may be shown once.

Each compound was assayed on Human immunodeficiency virus 1 (assay: Antiviral activity against HIV1 in MT4 cells assessed as reduction of virus-induced cytopathicity by XTT assay).
Assay type: functional
With S=C(NCCc1ccccc1)Nc1ncc(Cl)s1 the Log10ED50 was 0.4314. S=C(NCCc1ccccc1Cl)Nc1nccs1 showed a pED50 of 0.3979. Compound S=C(NCCc1ccccc1)Nc1nncs1 has a Log10ED50 of 0.7243. For S=C(NCCc1ccccn1)Nc1nccs1, the Log10ED50 was 0.1139. Compound S=C(NCCc1cccc(Oc2ccccc2)c1)Nc1nccs1 has a Log10ED50 of 0.4471. N#Cc1csc(NC(=S)NCCc2ccccc2)n1 showed a pED50 of 0.6989. For COc1cccc(F)c1CCNC(=S)Nc1nccs1, the pED50 was 0.5229. For COc1ccc(Br)cc1CCNC(=S)Nc1nccs1, the pED50 was 1.301. Fc1cccc(F)c1CCNC(=S)Nc1nccs1 gave a pED50 of 1.6989. Work on Fc1cccc(Cl)c1CCNC(=S)Nc1nccs1 yielded a pED50 of 1.301. Compound Cn1cccc1CNC(=S)Nc1ccc(Cl)cn1 has a pED50 of 0.602. For CN(C)c1ccc(F)c(CCNC(=S)Nc2ccc(Cl)cn2)c1F, the pED50 was 1.3979. For CCOc1ccc(F)c(CCNC(=S)Nc2ccc(Br)cn2)c1F, the pED50 was 2.2218. COCc1ccc(F)c(CCNC(=S)Nc2ccc(Br)cn2)c1F was tested, and the pED50 was 2.2218. CCOc1ccc(F)c(CCNC(=S)Nc2ccc(Cl)cn2)c1Cl was tested, and the pED50 was 2.0969. Compound CCOc1ccc(F)c(CCNC(=S)Nc2ccc(I)cn2)c1Cl has a pED50 of 1.8239. For COc1ccc(OC)c(CCNC(=S)Nc2ccc(Cl)cn2)c1F, the pED50 was 2.6989. COc1ccc(F)c(CCNC(=S)Nc2ccc(Cl)cn2)c1OC showed a pED50 of 1.9208. For CCOc1cccc(F)c1CCNC(=S)Nc1ccc(Br)cn1, the pED50 was 1.886 and 1.6989. CN(C)C(=O)c1ccc(F)c(CCNC(=S)Nc2ccc(Br)cn2)c1F gave a pED50 of 1.0969. COc1ccc(OC)c(CCNC(=S)Nc2ccc(Cl)cn2)c1 gave a pED50 of 1.3979. N#Cc1ccc(F)c(CCNC(=S)Nc2ccc(Br)cn2)c1F was tested, and the pED50 was 1.886. In the case of Fc1ccccc1CCNC(=S)Nc1nccs1, the pED50 is reported as 1. For Fc1cccc(CCNC(=S)Nc2nccs2)c1, the pED50 was 0.6021. Work on Fc1ccc(CCNC(=S)Nc2nccs2)cc1 yielded a Log10ED50 of 0.5185. N#Cc1csc(NC(=S)NCCc2c(F)cccc2F)n1 showed a pED50 of 1.5229. Work on Cn1cccc1CNC(=S)Nc1ccc(C#N)cn1 yielded a pED50 of 0.959. For COc1ccccc1CCNC(=S)Nc1nccs1, the pED50 was 0.3979. COc1ccc(CCNC(=S)Nc2nccs2)cc1 gave a Log10ED50 of 0.7404. With Cc1ccccc1CCNC(=S)Nc1nccs1 the pED50 was 0.0227. With CCOc1ccc(OCC)c(CCNC(=S)Nc2ccc(Br)cn2)c1 the pED50 was 1.7447. Compound O=[N+]([O-])c1ccccc1CCNC(=S)Nc1nccs1 has a Log10ED50 of 0.0414. For CCOc1cccc(CCNC(=S)Nc2nccs2)c1, the pED50 was 0.8239. CCCOc1cccc(CCNC(=S)Nc2nccs2)c1 was tested, and the Log10ED50 was 0.3424. CC(C)Oc1cccc(CCNC(=S)Nc2nccs2)c1 was tested, and the pED50 was 0.3979. Cc1csc(NC(=S)NCCc2ccccc2)n1 showed a pED50 of 0.3979. Compound CCc1csc(NC(=S)NCCc2ccccc2)n1 has a pED50 of 0.1549. CC(C)c1csc(NC(=S)NCCc2ccccc2)n1 was tested, and the Log10ED50 was 0.1139. Work on CCCCc1csc(NC(=S)NCCc2ccccc2)n1 yielded a Log10ED50 of 0.1139. For S=C(NCCc1ccccc1)Nc1ccccn1, the pED50 was 0.6989. In the case of S=C(NCCc1ccccc1)Nc1ccc(Br)cn1, the pED50 is reported as 1.301. N#Cc1ccc(F)c(CC/N=C(\S)Nc2ccc(Cl)cn2)c1F was tested, and the pED50 was 2.2218. Work on COc1ccc(F)c(F)c1CC/N=C(\S)Nc1ccc(Br)cn1 yielded a pED50 of 2.1589. S=C(NCCc1ccccc1)Nc1nccs1 showed a Log10ED50 of 0.1139. Compound S=C(NCCc1cccnc1)Nc1nccs1 has a Log10ED50 of 0.8062. S=C(NCCc1ccco1)Nc1nccs1 was tested, and the Log10ED50 was 0.716. In the case of CCOC(=O)c1csc(NC(=S)NCCc2ccccc2)n1, the pED50 is reported as 0.301. Cc1ccc(NC(=S)NCCc2ccccc2)nc1 showed a pED50 of 0.8239. For Cc1ccc(NC(=S)NCCc2c(F)cccc2F)nc1, the pED50 was 2. With CCOc1c(Cl)cc(F)c(CCNC(=S)Nc2ccc(Br)cn2)c1Cl the pED50 was 1.886. With COc1ccc(F)c(CCNC(=S)Nc2ccc(Br)cn2)c1F the pED50 was 1.8239. With CCCc1csc(NC(=S)NCCc2ccccc2)n1 the Log10ED50 was 0.2041. With CCOc1ccc(OC)c(CCNC(=S)Nc2ccc(Cl)cn2)c1F the pED50 was 2.301. Work on CCOc1cccc(F)c1CCNC(=S)Nc1ccc(C)cn1 yielded a pED50 of 0.6989. With Cc1ccc(NC(=S)NCCc2ccccn2)nc1 the pED50 was 0.5228. CCc1csc(NC(=S)NCCc2c(F)cccc2F)n1 was tested, and the pED50 was 1.0969. In the case of Oc1ccccc1CCNC(=S)Nc1nccs1, the Log10ED50 is reported as 0.602. COc1cccc(OC)c1CCNC(=S)Nc1nccs1 showed a pED50 of 1.0457. CC(=O)NCc1ccc(F)c(CCNC(=S)Nc2ccc(Br)cn2)c1F gave a pED50 of 0.0457. In the case of COc1cccc(CCNC(=S)Nc2nccs2)c1, the pED50 is reported as 0.2218. For COc1ccc(OC)c(CCNC(=S)Nc2nccs2)c1, the pED50 was 0.3979. In the case of CCOc1ccc(F)c(F)c1CCNC(=S)Nc1ccc(Br)cn1, the pED50 is reported as 2.1549. With FC(F)(F)c1csc(NC(=S)NCCc2ccccc2)n1 the pED50 was 0.301. With CCOc1ccc(F)c(CCNC(=S)Nc2ccc(C#N)cn2)c1Cl the pED50 was 2.5229. With CCOc1cccc(F)c1CCNC(=S)Nc1nccs1 the pED50 was 0.6989. CN(C)c1ccc(F)c(CCNC(=S)Nc2ccc(Br)cn2)c1F was tested, and the pED50 was 1.7447 and 1.3979. Fc1cccc(F)c1CC/N=C(\S)Nc1ccc(Br)cn1 showed a pED50 of 2. CCOc1ccc(F)c(CCNC(=S)Nc2ccc(Br)cn2)c1Cl [THIOUREA, N-(5-BROMO-2-PYRIDINYL)-N'-(2-(2-CHLORO-3-ETHOXY-6-FLUOROPHENYL)ETHYL)-] was tested, and the pED50 was 2.1549. S=C(NCCc1ccccn1)Nc1ccc(Br)cn1 [TROVIRDINE] was tested, and the pED50 was 1.6989.
